According to patent US12398154B2, “Azaquinazoline pan-KRas inhibitors” (Mirati Therapeutics, Inc., priority 2020, dated 2025):

Assays:
KRas G13D = target: T1, KRas G13D (Homo sapiens, UniProt P01116, G13D); experiment: KRas binding assay (TR-FRET displacement);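 also: One-hour room temperature incubation before TR-FRET reading, IC50 from a four-parameter curve fit to percent-of-control data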
T1 construct: Biotinylated KRas (corresponding to amino acids 1-169, produced at Accelegan Inc.); biotin (biotinylated); purchased Accelegan Inc
Protocol: (§1) The ability of a compound to bind to KRas was measured using a TR-FRET displacement assay. […] After a 60-minute incubation at room temperature, the reaction was measured using a BMG LABTECH CLARIO star Plus via TR-FRET. […] The POC values were fit to a 4-parameter IC50 equation and the IC50 value reported.

KRas Q61H = target: T2, KRas Q61H (Homo sapiens, UniProt P01116, Q61H); experiment: KRas binding assay (TR-FRET displacement);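 also: TR-FRET signal read after one hour at room temperature, IC50 derived by four-parameter fitting of percent-of-control values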
T2 construct: Biotinylated KRas (corresponding to amino acids 1-169, produced at Accelegan Inc.); biotin (biotinylated); purchased Accelegan Inc
Protocol: as §1

KRas G12D = KRas G12D (Homo sapiens, UniProt P01116, G12D); experiment: biochemical;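 also: TR-FRET displacement binding assay on KRas, read after a one-hour incubation at room temperature, IC50 fitted from percent-of-control values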
Protocol: as §1

KRas G12V = KRas G12V (Homo sapiens, UniProt P01116, G12V); experiment: biochemical;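 also: KRas binding measured by TR-FRET displacement at room temperature, IC50 fitted from percent of control values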
Protocol: as §1

KRas G12R = KRas G12R (Homo sapiens, UniProt P01116, G12R); experiment: biochemical;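 also: TR-FRET displacement assay of compound binding to KRas, read after one hour at room temperature, potency from a four-parameter fit of percent-of-control values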
Protocol: as §1

KRas G12A = KRas G12A (Homo sapiens, UniProt P01116, G12A); experiment: biochemical;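 also: binding to KRas measured by TR-FRET displacement after one hour at room temperature, IC50 from a four-parameter fit of percent-of-control values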
Protocol: as §1

KRas G12S = KRas G12S (Homo sapiens, UniProt P01116, G12S); experiment: biochemical;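 also: TR-FRET displacement binding to KRas, read after one hour incubation at room temperature, IC50 from four-parameter fit of percent of control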
Protocol: as §1

KRas G12C = KRas G12C (Homo sapiens, UniProt P01116, G12C); experiment: biochemical;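 also: binding to KRas assessed by TR-FRET displacement after one hour incubation at room temperature, potency fitted from percent-of-control values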
Protocol: as §1

KRas WT = KRas WT (Homo sapiens, UniProt P01116); experiment: biochemical;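 also: binding to KRas read as TR-FRET displacement after a one-hour room-temperature incubation, IC50 derived from percent-of-control values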
Sequence of KRas WT (P01116 1-169 isoform P01116-2): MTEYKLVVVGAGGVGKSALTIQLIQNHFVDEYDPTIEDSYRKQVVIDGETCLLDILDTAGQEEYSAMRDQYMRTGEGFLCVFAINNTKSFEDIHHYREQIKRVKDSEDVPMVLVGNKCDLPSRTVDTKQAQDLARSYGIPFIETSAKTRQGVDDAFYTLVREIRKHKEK
Protocol: as §1

Sequence of KRas G12S (P01116 1-169 isoform P01116-2 G12S): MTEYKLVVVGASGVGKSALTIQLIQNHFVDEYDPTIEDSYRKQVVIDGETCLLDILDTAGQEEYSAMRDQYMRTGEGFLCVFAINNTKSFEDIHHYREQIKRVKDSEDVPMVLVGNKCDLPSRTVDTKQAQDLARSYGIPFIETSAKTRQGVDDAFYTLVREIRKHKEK
Sequence of KRas G12D (P01116 1-169 isoform P01116-2 G12D): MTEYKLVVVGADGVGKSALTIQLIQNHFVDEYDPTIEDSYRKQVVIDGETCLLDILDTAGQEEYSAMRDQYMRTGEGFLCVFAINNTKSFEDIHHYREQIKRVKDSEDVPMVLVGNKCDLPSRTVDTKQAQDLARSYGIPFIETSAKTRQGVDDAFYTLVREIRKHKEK
T1 sequence (P01116 1-169 isoform P01116-2 G13D): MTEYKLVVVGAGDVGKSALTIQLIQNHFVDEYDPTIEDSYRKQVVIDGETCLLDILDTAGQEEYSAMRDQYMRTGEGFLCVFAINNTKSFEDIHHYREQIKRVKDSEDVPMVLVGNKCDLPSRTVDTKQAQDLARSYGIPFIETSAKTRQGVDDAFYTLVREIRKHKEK
Sequence of KRas G12C (P01116 1-169 isoform P01116-2 G12C): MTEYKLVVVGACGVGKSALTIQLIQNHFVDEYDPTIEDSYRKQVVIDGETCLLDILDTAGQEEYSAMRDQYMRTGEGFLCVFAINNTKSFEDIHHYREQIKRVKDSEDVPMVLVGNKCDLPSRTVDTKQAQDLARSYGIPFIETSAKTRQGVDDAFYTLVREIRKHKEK
Sequence of KRas G12V (P01116 1-169 isoform P01116-2 G12V): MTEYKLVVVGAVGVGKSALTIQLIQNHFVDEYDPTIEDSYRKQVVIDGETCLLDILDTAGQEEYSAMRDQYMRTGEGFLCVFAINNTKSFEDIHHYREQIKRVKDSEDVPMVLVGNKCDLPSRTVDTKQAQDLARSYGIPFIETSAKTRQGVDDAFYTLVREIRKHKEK
Sequence of KRas G12A (P01116 1-169 isoform P01116-2 G12A): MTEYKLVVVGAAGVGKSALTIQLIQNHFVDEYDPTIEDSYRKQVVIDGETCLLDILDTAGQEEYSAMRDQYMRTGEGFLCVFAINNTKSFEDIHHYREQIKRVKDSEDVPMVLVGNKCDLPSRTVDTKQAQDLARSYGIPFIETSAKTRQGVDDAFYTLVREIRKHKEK
T2 sequence (P01116 1-169 isoform P01116-2 Q61H): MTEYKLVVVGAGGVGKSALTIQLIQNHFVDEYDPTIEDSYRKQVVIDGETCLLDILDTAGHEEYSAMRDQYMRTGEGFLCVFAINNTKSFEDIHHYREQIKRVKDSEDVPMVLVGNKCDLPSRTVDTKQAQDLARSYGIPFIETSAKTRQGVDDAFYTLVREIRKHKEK
Sequence of KRas G12R (P01116 1-169 isoform P01116-2 G12R): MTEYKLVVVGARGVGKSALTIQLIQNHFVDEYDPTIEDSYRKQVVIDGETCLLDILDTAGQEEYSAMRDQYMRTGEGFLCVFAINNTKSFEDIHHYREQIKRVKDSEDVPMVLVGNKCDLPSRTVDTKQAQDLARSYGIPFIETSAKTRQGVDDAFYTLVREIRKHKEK

Row | IC50 (KRas G13D) | IC50 (KRas Q61H) | IC50 (KRas G12D) | IC50 (KRas G12V) | IC50 (KRas G12R) | IC50 (KRas G12A) | IC50 (KRas G12S) | IC50 (KRas G12C) | IC50 (KRas WT) | Structure (SMILES)
1 | 83 nM | 102 nM | 0.152 µM | 0.078 µM | 0.081 µM | 0.085 µM | 0.069 µM | 0.041 µM | 0.103 µM | O=C1NC(=O)C2(CCCN(c3nc(OCC45CCCN4CCC5)nc4c(F)c(-c5cccc6cccc(F)c56)ncc34)C2)N1 (stereo not drawn) [Example 158, 7-(8-fluoro-7-(8-fluoronaphthalen-1-yl)-2-((hexahydro-1H-pyrrolizin-7a-yl)methoxy)pyrido[4,3-d]pyrimidin-4-yl)-1,3,7-triazaspiro[4.5]decane-2,4-dione]
2 | 317 nM | 283 nM | 1.29 µM | 0.043 µM | 0.021 µM | 0.038 µM | 0.051 µM | 0.02 µM | 0.233 µM | CCc1cccc2cccc(-c3ncc4c(NCc5cccnc5N)nc(OCC56CCCN5CCC6)nc4c3F)c12 [Example 204, N-((2-aminopyridin-3-yl)methyl)-7-(8-ethylnaphthalen-1-yl)-8-fluoro-2-((hexahydro-1H-pyrrolizin-7a-yl)methoxy)pyrido[4,3-d]pyrimidin-4-amine]
3 | 69 nM | 95 nM | 0.307 µM | 0.008 µM | 0.007 µM | 0.013 µM | 0.016 µM | 0.01 µM | 0.08 µM | CCc1cccc2cccc(-c3ncc4c(NCc5c[nH]c6ncccc56)nc(OCC56CCCN5CCC6)nc4c3F)c12 [Example 205, N-((1H-pyrrolo[2,3-b]pyridin-3-yl)methyl)-7-(8-ethylnaphthalen-1-yl)-8-fluoro-2-((hexahydro-1H-pyrrolizin-7a-yl)methoxy)pyrido[4,3-d]pyrimidin-4-amine]
4 | 30400 nM | 46400 nM | 17.3 µM | 6.17 µM | 13.1 µM | 18.1 µM | 46.2 µM | 11.8 µM | 26.7 µM | Fc1c(-c2cccc3cccc(F)c23)ncc2c(OCCCc3cccnc3)nc(OCC34CCCN3CCC4)nc12 [Example 207, 8-fluoro-7-(8-fluoronaphthalen-1-yl)-4-(3-(pyridin-3-yl)propoxy)-2-((tetrahydro-1H-pyrrolizin-7a(5H)-yl)methoxy)pyrido[4,3-d]pyrimidine]
5 | 6250 nM | 7150 nM | 17.4 µM | 0.824 µM | 0.494 µM | 1.3 µM | 2.26 µM | 0.677 µM | 4.01 µM | Fc1c(-c2cccc3cccc(F)c23)ncc2c(NCc3ccc4nccn4c3)nc(OCC34CCCN3CCC4)nc12 [Example 208, 8-fluoro-7-(8-fluoronaphthalen-1-yl)-N-(imidazo[1,2-a]pyridin-6-ylmethyl)-2-((tetrahydro-1H-pyrrolizin-7a(5H)-yl)methoxy)pyrido[4,3-d]pyrimidin-4-amine]
6 | 13300 nM | 12700 nM | 63.4 µM | 2.35 µM | 1.61 µM | 3.7 µM | 10.1 µM | 2.52 µM | 4.96 µM | N#Cc1cccnc1N1CCN(c2nc(OCC34CCCN3CCC4)nc3c(F)c(-c4cccc5cccc(F)c45)ncc23)CC1 [Example 209, 2-(4-(8-fluoro-7-(8-fluoronaphthalen-1-yl)-2-((tetrahydro-1H-pyrrolizin-7a(5H)-yl)methoxy)pyrido[4,3-d]pyrimidin-4-yl)piperazin-1-yl)nicotinonitrile]
7 | ≥ 100000 nM | ≥ 100000 nM | ≥ 100 µM | 2.94 µM | 37.8 µM | 66.5 µM | ≥ 100 µM | 43.3 µM | ≥ 100 µM | Fc1c(-c2cccc3cccc(F)c23)ncc2c(Nc3cnn(-c4ccncc4)c3)nc(OCC34CCCN3CCC4)nc12 [Example 210, 8-fluoro-7-(8-fluoronaphthalen-1-yl)-N-(1-(pyridin-4-yl)-1H-pyrazol-4-yl)-2-((tetrahydro-1H-pyrrolizin-7a(5H)-yl)methoxy)pyrido[4,3-d]pyrimidin-4-amine]
8 | 20200 nM | 29800 nM | ≥ 100 µM | 14.7 µM | 8.03 µM | 12.2 µM | 18.7 µM | 10.4 µM | 16.9 µM | Fc1c(-c2cccc3cccc(F)c23)ncc2c(NCCNc3cccnc3)nc(OCC34CCCN3CCC4)nc12 [Example 211, N1-(8-fluoro-7-(8-fluoronaphthalen-1-yl)-2-((tetrahydro-1H-pyrrolizin-7a(5H)-yl)methoxy)pyrido[4,3-d]pyrimidin-4-yl)-N2-(pyridin-3-yl)ethane-1,2-diamine]
9 | 10100 nM | 17400 nM | 15.6 µM | 1.35 µM | 0.88 µM | 2.83 µM | 6.45 µM | 3.12 µM | 8.36 µM | Fc1c(-c2cccc3cccc(F)c23)ncc2c(NCCc3c[nH]c4ncccc34)nc(OCC34CCCN3CCC4)nc12 [Example 212, N-(2-(1H-pyrrolo[2,3-b]pyridin-3-yl)ethyl)-8-fluoro-7-(8-fluoronaphthalen-1-yl)-2-((tetrahydro-1H-pyrrolizin-7a(5H)-yl)methoxy)pyrido[4,3-d]pyrimidin-4-amine]
10 | 20500 nM | 17700 nM | ≥ 100 µM | 5.57 µM | 4.25 µM | 6.19 µM | 7.25 µM | 4.2 µM | 16.8 µM | Fc1c(-c2cccc3cccc(F)c23)ncc2c(N3CC(c4ccncc4)C3)nc(OCC34CCCN3CCC4)nc12 [Example 213, 8-fluoro-7-(8-fluoronaphthalen-1-yl)-4-(3-(pyridin-4-yl)azetidin-1-yl)-2-((tetrahydro-1H-pyrrolizin-7a(5H)-yl)methoxy)pyrido[4,3-d]pyrimidine]
11 | 95100 nM | 81100 nM | ≥ 100 µM | 12.6 µM | 16.4 µM | 28.8 µM | 34.6 µM | 9.59 µM | 60 µM | Fc1c(-c2cccc3cccc(F)c23)ncc2c(NCc3cnn4cccnc34)nc(OCC34CCCN3CCC4)nc12 [Example 214, 8-fluoro-7-(8-fluoronaphthalen-1-yl)-N-(pyrazolo[1,5-a]pyrimidin-3-ylmethyl)-2-((tetrahydro-1H-pyrrolizin-7a(5H)-yl)methoxy)pyrido[4,3-d]pyrimidin-4-amine]
12 | 47100 nM | 57500 nM | ≥ 100 µM | 17 µM | 8.95 µM | 26.1 µM | 23.5 µM | 17.8 µM | 34 µM | Fc1c(-c2cccc3cccc(F)c23)ncc2c(NCCc3ccn[nH]3)nc(OCC34CCCN3CCC4)nc12 [Example 215, N-(2-(1H-pyrazol-5-yl)ethyl)-8-fluoro-7-(8-fluoronaphthalen-1-yl)-2-((tetrahydro-1H-pyrrolizin-7a(5H)-yl)methoxy)pyrido[4,3-d]pyrimidin-4-amine]
13 | 59000 nM | 83200 nM | ≥ 100 µM | 17.9 µM | 2.57 µM | 13.8 µM | 41 µM | 6.3 µM | 30.9 µM | N#Cc1ccccc1N1CCN(c2nc(OCC34CCCN3CCC4)nc3c(F)c(-c4cccc5cccc(F)c45)ncc23)CC1 [Example 216, 2-(4-(8-fluoro-7-(8-fluoronaphthalen-1-yl)-2-((tetrahydro-1H-pyrrolizin-7a(5H)-yl)methoxy)pyrido[4,3-d]pyrimidin-4-yl)piperazin-1-yl)benzonitrile]
14 | 11600 nM | 19500 nM | 64.4 µM | 5.16 µM | 7.57 µM | 8.99 µM | 11.3 µM | 9.88 µM | 14 µM | O=C1NCC2(CCN(c3nc(OCC45CCCN4CCC5)nc4c(F)c(-c5cccc6cccc(F)c56)ncc34)CC2)N1 [Example 217, 8-(8-fluoro-7-(8-fluoronaphthalen-1-yl)-2-((tetrahydro-1H-pyrrolizin-7a(5H)-yl)methoxy)pyrido[4,3-d]pyrimidin-4-yl)-1,3,8-triazaspiro[4.5]decan-2-one]
15 | ≥ 100000 nM | 84800 nM | 65.9 µM | 2.84 µM | 6.53 µM | 14.8 µM | 23.2 µM | 6.88 µM | 28.9 µM | Fc1c(-c2cccc3cccc(F)c23)ncc2c(Nc3ccc4cn[nH]c4c3)nc(OCC34CCCN3CCC4)nc12 [Example 218, 8-fluoro-7-(8-fluoronaphthalen-1-yl)-N-(1H-indazol-6-yl)-2-((tetrahydro-1H-pyrrolizin-7a(5H)-yl)methoxy)pyrido[4,3-d]pyrimidin-4-amine]
16 | 18100 nM | 20200 nM | 65.3 µM | 8.83 µM | 4.78 µM | 16.2 µM | 13.1 µM | 5.65 µM | 15 µM | Fc1c(-c2cccc3cccc(F)c23)ncc2c(NCCc3cnoc3)nc(OCC34CCCN3CCC4)nc12 [Example 219, 8-fluoro-7-(8-fluoronaphthalen-1-yl)-N-(2-(isoxazol-4-yl)ethyl)-2-((tetrahydro-1H-pyrrolizin-7a(5H)-yl)methoxy)pyrido[4,3-d]pyrimidin-4-amine]
